From the supplement of paper PMC10307832

Assays:
Assay in all cases: relative viability (nuclei count vs DMSO), 5 days (fraction); higher = more cells survive
MK-8033 + Pictilisib = compound: Cn1cc(-c2cnc3ccc4ccc(CS(=O)(=O)NCc5ccccn5)cc4c(=O)c3c2)cn1 [MK-8033] + CS(=O)(=O)N1CCN(Cc2cc3nc(-c4cccc5[nH]ncc45)nc(N4CCOCC4)c3s2)CC1 [Pictilisib] (partner 1 µM)
In short: (§1)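 Relative viability was taken as the ratio of nuclei in treated wells to nuclei in vehicle wells. Lung cancer cell lines in 1536-well plates received compounds by pin tool one day after seeding, either one drug alone or a fixed anchor-drug dose plus five library-drug doses (not always all listed) in √10 steps. Nuclei were counted on 4× images after 5 days of treatment, and values are medians of duplicate plates.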

RU-SKI 43 + Lapatinib = compound: CC[C@@H](C)CNCC(=O)N1CCC2=C([C@@H]1COC3=CC=CC(=C3)C)C=CS2 [RU-SKI 43] + CS(=O)(=O)CCNCc1ccc(-c2ccc3ncnc(Nc4ccc(OCc5cccc(F)c5)c(Cl)c4)c3c2)o1 [Lapatinib] (partner 2 µM)
In short: as §1

RU-SKI 43 + Luminespib = compound: CC[C@@H](C)CNCC(=O)N1CCC2=C([C@@H]1COC3=CC=CC(=C3)C)C=CS2 [RU-SKI 43] + CCNC(=O)c1noc(-c2cc(C(C)C)c(O)cc2O)c1-c1ccc(CN2CCOCC2)cc1 [Luminespib] (partner 0.01 µM)
In short: as §1

RU-SKI 43 + AZD7762 = compound: CC[C@@H](C)CNCC(=O)N1CCC2=C([C@@H]1COC3=CC=CC(=C3)C)C=CS2 [RU-SKI 43] + NC(=O)Nc1cc(-c2cccc(F)c2)sc1C(=O)N[C@H]1CCCNC1 [AZD7762] (partner 0.2 µM)
In short: as §1

Cell Line | relative viability (MK-8033 + Pictilisib; first compound 0.02 µM) | relative viability (MK-8033 + Pictilisib; first compound 0.06325 µM) | relative viability (MK-8033 + Pictilisib; first compound 0.2 µM) | relative viability (MK-8033 + Pictilisib; first compound 0.6325 µM) | relative viability (MK-8033 + Pictilisib; first compound 2 µM) | relative viability (RU-SKI 43 + Lapatinib; first compound 0.1 µM) | relative viability (RU-SKI 43 + Lapatinib; first compound 0.3162 µM) | relative viability (RU-SKI 43 + Lapatinib; first compound 1 µM) | relative viability (RU-SKI 43 + Lapatinib; first compound 3.162 µM) | relative viability (RU-SKI 43 + Lapatinib; first compound 10 µM) | relative viability (RU-SKI 43 + Luminespib; first compound 0.1 µM) | relative viability (RU-SKI 43 + Luminespib; first compound 0.3162 µM) | relative viability (RU-SKI 43 + Luminespib; first compound 1 µM) | relative viability (RU-SKI 43 + Luminespib; first compound 3.162 µM) | relative viability (RU-SKI 43 + Luminespib; first compound 10 µM) | relative viability (RU-SKI 43 + AZD7762; first compound 0.1 µM) | relative viability (RU-SKI 43 + AZD7762; first compound 0.3162 µM) | relative viability (RU-SKI 43 + AZD7762; first compound 1 µM) | relative viability (RU-SKI 43 + AZD7762; first compound 3.162 µM) | relative viability (RU-SKI 43 + AZD7762; first compound 10 µM)
NCI-H1755 | 0.413 | 0.399 | 0.368 | 0.405 | 0.481 | 1.03 | 1.4 | 1.08 | 0.995 | 1.01 | 0.5 | 0.3 | 0.515 | 0.472 | 0.301 | 0.42 | 0.504 | 0.46 | 0.411 | 0.359
LOU-NH91 | 0.531 |  | 0.498 | 0.548 | 0.506 | 0.796 | 0.685 | 0.815 | 0.749 | 0.754 | 0.307 | 0.304 | 0.431 | 0.36 | 0.317 | 0.789 | 0.74 | 0.85 | 0.831 | 0.74
NCI-H1975 | 0.302 | 0.266 | 0.269 | 0.307 | 0.315 | 0.968 | 1.32 | 0.867 | 0.853 | 1.02 | 0.199 | 0.172 | 0.229 | 0.157 | 0.25 | 0.763 | 0.748 | 0.97 | 0.671 | 0.803
NCI-H650 | 0.849 | 0.824 | 0.871 | 0.723 | 0.834 | 0.969 | 0.837 | 1.25 |  | 0.914 | 0.748 | 0.861 | 0.901 | 0.852 | 0.727 | 0.944 | 1.09 |  | 1.04 | 1.06
NCI-H1944 | 0.35 |  | 0.347 | 0.346 | 0.34 | 0.825 | 0.793 | 0.864 | 0.86 | 0.817 | 0.643 | 0.751 | 0.832 | 0.819 | 0.662 | 0.591 | 0.579 | 0.447 | 0.589 | 0.502
NCI-H838 | 0.462 | 0.447 | 0.425 | 0.423 | 0.394 | 0.905 | 0.945 | 1.12 | 1.17 | 1.01 | 0.237 | 0.241 | 0.288 | 0.237 | 0.232 | 0.933 | 1.03 | 1 | 0.987 | 0.876
